From PubChem BioAssay AID434987 (Southern Research Specialized Biocontainment Screening …, 2010)
The source made the active and inactive calls. How the calls were made is not given here.

System: M. tuberculosis H37Rv growth inhibition with meropenem
Assay: dose response, H37Rv, with and without meropenem (AID 434987);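 further: growth over 7 days at 37 °C before Alamar Blue read on day 9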
[1] = M. tuberculosis H37Rv growth inhibition, measured here: IC50 without meropenem
[2] = M. tuberculosis H37Rv growth inhibition, measured here: IC90 without meropenem
[3] = measured here: IC90 with meropenem

Row | Compound | IC50 | IC50 [1] | IC90 [2] | IC90 [3]
1 | COc1ccnc(CS(=O)c2nc3cc(OC(F)F)ccc3[nH]2)c1OC (stereo not drawn) | > 100 µM (inactive) | > 100 µM | > 100 µM | > 100 µM
2 | COc1ccc2nc(SCC(=O)N3CCCCCC3)c(C#N)cc2c1 | > 50 µM (inactive) | > 100 µM | > 100 µM | > 50 µM
3 | CN1CCN(c2ccc(NC(=O)c3ccc(-c4cccc([N+](=O)[O-])c4)o3)cc2)CC1 | 5.87 µM (inactive) | 6.97 µM | 18.1 µM | 6.71 µM
4 | CCOC(=O)c1sc(NC(=O)Cn2nnc3sc4c(c3c2=O)CCC(C(C)(C)C)C4)nc1C (stereo not drawn) | 93.7 µM (inactive) | > 100 µM | > 100 µM | > 100 µM
5 | COc1cc(NC(=O)c2ccccc2Cl)ccc1NC(=O)c1ccco1 | 19.6 µM (inactive) | 32.9 µM | > 50 µM | > 25 µM
6 | COc1c(F)c(F)c(C(=O)Nc2c(C)cc(Br)cc2C)c(F)c1F | 4.58 µM | > 100 µM | > 100 µM | > 100 µM
7 | Cc1cc(NC(=O)COc2nnc(-c3ccccc3)c3ccccc23)no1 | 14 µM | > 100 µM | > 100 µM | > 25 µM
8 | COc1ccc(C(=O)NC(=S)NC(C)(C)C)cc1Br | > 100 µM (inactive) | > 100 µM | > 100 µM | > 100 µM
9 | CCCCn1nc2cc(C(=O)NCC34CC5CC(CC(C5)C3)C4)ccc2c1OCC | 55.5 µM (inactive) | > 100 µM | > 100 µM | > 100 µM
10 | Cc1ccc(OC(=O)COc2ccccc2)c(-n2nc3ccccc3n2)c1 | > 100 µM (inactive) | > 100 µM | > 100 µM | > 100 µM
11 | O=C(O)Cc1csc(Nc2cccc(Cl)c2)n1 | > 100 µM (inactive) | > 100 µM | > 100 µM | > 100 µM
12 | Cn1nc(-c2ccc(OCC(=O)NCC3CCCO3)cc2)c2ccccc2c1=O (stereo not drawn) | > 100 µM (inactive) | > 100 µM | > 100 µM | > 100 µM
13 | CCOc1ccc(N2C(=O)CC(N)C2=O)cc1 (stereo not drawn) | 30.9 µM (inactive) | 45.9 µM | 51.4 µM | 52.4 µM
14 | COc1ccc(NC(=O)c2cc(Br)ccc2Cl)c(OC)c1 | 23.2 µM | > 100 µM | > 100 µM | > 100 µM
15 | O=C(NC(=S)N1CCOCC1)c1ccc([N+](=O)[O-])cc1 | 20.7 µM (inactive) | 46.8 µM | > 100 µM | > 100 µM
16 | CCOC(=O)C1CCN(C(=O)CCCCn2c(=O)[nH]c3ccccc3c2=O)CC1 | > 100 µM (inactive) | > 100 µM | > 100 µM | > 100 µM
17 | CC(=O)OCC(=O)Nc1ccc(C(C)=O)cc1 | 89.2 µM (inactive) | 95.5 µM | > 100 µM | > 100 µM
18 | Nc1c(C(=O)N2CCCC2)sc2nc3c(cc12)CCCCCC3 | 19.4 µM | 92.2 µM | > 100 µM | > 100 µM
19 | Cc1nn(C)c(C)c1C1C(C#N)=C(N)OC2=C1C(=O)CCC2 (stereo not drawn) | > 100 µM (inactive) | > 100 µM | > 100 µM | > 100 µM

Row | Compound | IC50 | IC50 [1] | IC90 [2] | IC90 [3]
20 | Nc1c(C(=O)NC2CC2)c2nc3ccccc3nc2n1-c1ccc2c(c1)OCO2 | 95 µM (inactive) | 88.5 µM | > 100 µM | > 100 µM
21 | O=C(NC1CCCCC1)C1CCN(c2nccs2)CC1 | 40.2 µM | > 100 µM | > 100 µM | > 100 µM
22 | Cc1cc(C=C2C(=O)NC(=S)NC2=O)c(C)n1-c1ccc2c(c1)OCO2 | 12.7 µM (inactive) | 24.3 µM | 25.3 µM | 14.5 µM
23 | CC(=O)NC(=S)Nc1ccc(NC(=O)c2cccnc2Cl)cc1 | > 100 µM (inactive) | > 100 µM | > 100 µM | > 100 µM
24 | O=c1cc(C(F)(F)F)c2sc(N3CCCCC3)nc2[nH]1 | 45.4 µM (inactive) | > 100 µM | > 100 µM | 49.3 µM
25 | CCOC(=O)c1ccc(NC(=O)Cc2coc3cc4c(cc23)CCC4)cc1 | > 100 µM (inactive) | > 100 µM | > 100 µM | > 100 µM
26 | Cc1ccc(/C=N/NC(=O)c2cccs2)s1 | > 100 µM (inactive) | > 100 µM | > 100 µM | > 100 µM
27 | CCCSc1nnc(NC(=O)c2sc3nc(-c4cccs4)ccc3c2N)s1 | 62.8 µM (inactive) | > 100 µM | > 100 µM | > 100 µM
28 | CCc1cc2c(Sc3nc4ccccc4s3)ncnc2s1 | 50.6 µM (inactive) | 90.1 µM | > 100 µM | > 100 µM
29 | C=CCNC(=S)NC(=O)c1csc([N+](=O)[O-])c1 | 27.8 µM (inactive) | 49 µM | > 50 µM | > 100 µM
30 | O=S(=O)(Nc1cccc(-c2ccc(N3CCCCCC3)nn2)c1)c1ccccc1Cl | 16 µM | > 100 µM | > 100 µM | > 25 µM
31 | Cc1ccc(C)c(S(=O)(=O)N2CCN(CC(=O)NC(C)c3ccccc3)CC2)c1 (stereo not drawn) | 98 µM (inactive) | 99.7 µM | > 100 µM | > 100 µM
32 | CCn1c(SCc2nc(-c3cccs3)no2)nnc1-c1c[nH]c2ccccc12 | > 100 µM (inactive) | > 100 µM | > 100 µM | > 100 µM
33 | COc1ccc2c(c1)c(CC(=O)Nc1ccc(C)cc1)c(C)n2C(=O)c1ccc(Cl)cc1 | > 100 µM (inactive) | > 100 µM | > 100 µM | > 100 µM
34 | Cc1ccc(-n2nnnc2Sc2nc([N+](=O)[O-])nn2C)c(C)c1 | 16.5 µM | 50.4 µM | > 100 µM | > 100 µM
35 | COc1ccc2ccccc2c1/C=N/NC(=O)c1cccc(Br)c1 | > 100 µM (inactive) | > 100 µM | > 100 µM | > 100 µM
36 | O=C(N/N=C/c1cccc(Br)c1)c1ccc(Cn2cc(Br)cn2)o1 | 99.8 µM (inactive) | > 100 µM | > 100 µM | > 100 µM
37 | Cc1cc(C)cc(SCc2noc(C(=O)NC(C)C)c2C(=O)O)c1 | 25.1 µM (inactive) | 45.2 µM | 50.7 µM | 27.3 µM
38 | CCOc1cc(N2CCOCC2)c(OCC)cc1NC(=O)COc1cccc(CC)c1 | > 100 µM (inactive) | > 100 µM | > 100 µM | > 100 µM

Row | Compound | IC50 | IC50 [1] | IC90 [2] | IC90 [3]
39 | CC1CCN(CC(CS(=O)(=O)c2ccc([N+](=O)[O-])cc2)N2CCC(C)CC2)CC1 (stereo not drawn) | 13.7 µM (inactive) | 21 µM | 30.3 µM | 31.5 µM
40 | CCOC(=O)c1nn(-c2ccc(F)cc2)c2nc(Nc3ccccc3)cc(=O)n12 | > 100 µM (inactive) | > 100 µM | > 100 µM | > 100 µM
41 | O=C(OCn1nnc2ccccc2c1=O)c1ccc2c(=O)n3c(nc2c1)CCC3 | 18 µM (inactive) | 35.4 µM | > 100 µM | 26.1 µM
42 | COC(=O)N1C(=O)[C@](Cc2ccccc2)(c2ccccc2)N1C(=O)OC | > 100 µM (inactive) | > 100 µM | > 100 µM | > 100 µM
43 | O=C(Oc1c(-c2ccccc2Cl)oc2ccccc2c1=O)c1ccc(Cl)cc1 | 11 µM | 47.5 µM | > 100 µM | > 50 µM
44 | COc1ccc(NC(=O)C/C(C)=N/NC(=O)c2cnccn2)cc1 | 20.1 µM | > 100 µM | > 100 µM | > 100 µM
45 | COc1ccc(CN(CCC#N)C(=S)NC(=O)c2ccccc2)cc1 | 10.6 µM | 79.1 µM | > 100 µM | > 100 µM
46 | OCCCc1cn(-c2ccccc2)c2ccccc12 | 12.4 µM | > 100 µM | > 100 µM | 60.8 µM
47 | Cc1ccc(C(=O)NN2C(=O)/C(=C/c3cccn3C)SC2=S)cc1 | > 100 µM (inactive) | > 100 µM | > 100 µM | > 100 µM
48 | O=C(Cc1ccc(Cl)cc1Cl)Nc1ccc(OC(F)F)c(Cl)c1 | 12.1 µM | > 100 µM | > 100 µM | 13.7 µM
49 | COc1ccc(-c2csc(NC(=O)c3c(C)noc3C)n2)cc1 | 25.9 µM | > 100 µM | > 100 µM | > 100 µM
50 | CCOC(=O)c1c(NC(=O)COC(=O)c2ncc(Cl)c(Cl)c2Cl)sc(C(=O)N(C)C)c1C | 24.8 µM (inactive) | 47.3 µM | 53.4 µM | 27.7 µM
51 | COc1ccc(-c2csc(NC(C)c3nc4cc(Cl)c(Cl)cc4n3CCCO)n2)cc1 (stereo not drawn) | 97.3 µM (inactive) | > 100 µM | > 100 µM | > 100 µM
52 | O=C(NCCC1=CCCCC1)NC1CCCCC1 | 17.8 µM | > 100 µM | > 100 µM | > 50 µM
53 | Cc1ccc(C)c(NC(=O)COC(=O)c2ccc(S(=O)(=O)N3CCCCC3)cc2)c1 | > 100 µM (inactive) | > 100 µM | > 100 µM | > 100 µM
54 | Cc1ccccc1Cn1cc(NC(=O)CSc2nc3c(c(C(F)(F)F)n2)CCc2ccccc2-3)cn1 | 26.4 µM | > 100 µM | > 100 µM | > 100 µM
55 | COc1ccc(C(=O)Nc2ccc(C(=O)OCC(=O)c3ccccc3)cc2)cc1 | > 100 µM (inactive) | > 100 µM | > 100 µM | > 100 µM
56 | NC(=O)[C@@H]1CC2(CC(c3cccc(NC(=O)COc4ccc(Cl)cc4)c3)=NO2)CN1C(=O)COc1ccc(Cl)cc1 (stereo partly drawn) | 75.4 µM (inactive) | > 100 µM | > 100 µM | > 100 µM
57 | Cc1ccc(NC(=O)C2(c3ccccc3)CC2(Cl)Cl)cc1C (stereo not drawn) | > 100 µM (inactive) | > 100 µM | > 100 µM | > 100 µM
